The text below walks through data of PubChem BioAssay (NCI).

Test systems include HOP-62 NSCLC; NCI-H460 lung; IGROV1 ovarian; HL-60(TB) leukemia; KM12 colon; UACC-257 melanoma; MCF7 breast; MDA-MB-231 breast; OVCAR-4 ovarian; SNB-75 CNS.
What all share (assay): NCI-60 cell line screen, 48 h

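Growth conditions: 96-well plates. Treatment: test compound, 48 hours, 5 concentrations. Analysis: linear interpolation between bracketing concentrations; unreached endpoints set to highest concentration. GI50 is the concentration that inhibits growth by half. TGI denotes the concentration required for complete inhibition of growth.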

For `Cc1cc(S(=O)(=O)Nc2nc3ccccc3[nH]2)c(SCc2ccccc2)cc1Cl`, the GI50 with HOP-62 NSCLC was 22.7 µM; with NCI-H460 lung, over 100 µM; with IGROV1 ovarian, 82 µM; with HL-60(TB) leukemia, over 100 µM; with KM12 colon, 40.4 µM; with UACC-257 melanoma it was over 100 µM. For the same compound, the GI50 with MCF7 breast was over 100 µM; with MDA-MB-231 breast, 18.2 µM. For the same compound, the TGI with HOP-62 NSCLC, with NCI-H460 lung, in the assay with IGROV1 ovarian, in the assay with HL-60(TB) leukemia, with KM12 colon and in the assay with UACC-257 melanoma was over 100 µM throughout. Further, the results for the TGI in the assay on MCF7 breast and with MDA-MB-231 breast were over 100 µM and 51.5 µM, respectively.
On to `Cc1ccc(S(=O)(=O)N[C@@H](Cc2ccccc2)C(=O)CCl)cc1`, for which the TGI is 39.8 µM in the assay with HOP-62 NSCLC; over 100 µM in the assay with NCI-H460 lung; 42.6 µM in the assay with OVCAR-4 ovarian; 42 µM in the assay with IGROV1 ovarian; 35.8 µM with SNB-75 CNS; 38 µM in the assay on KM12 colon. Further, the figures for the TGI with UACC-257 melanoma and in the assay with MCF7 breast were over 100 µM and 50.9 µM, respectively. Moreover, the GI50 was 21.8 µM with NCI-H460 lung; 16.6 µM in the assay with OVCAR-4 ovarian; 8.25 µM with IGROV1 ovarian; 16.7 µM in the assay with SNB-75 CNS; 18.2 µM with KM12 colon; 43.2 µM in the assay on UACC-257 melanoma. Further, the GI50 in the assay on MCF7 breast is 15.5 µM.
Take `C=C(CN(C)Cc1ccccc1)c1ccc(C(=O)Nc2ccccc2N)cc1`: the GI50 with HOP-62 NSCLC was 3.61 µM; in the assay with NCI-H460 lung, 19.9 µM; in the assay with OVCAR-4 ovarian, 8.28 µM; with IGROV1 ovarian it was 0.606 µM; in the assay with KM12 colon, 1.23 µM; in the assay on MCF7 breast, 16.8 µM. Moreover, the GI50 in the assay on MDA-MB-231 breast is 0.739 µM. For the same compound, the TGI in the assay on HOP-62 NSCLC was over 50 µM; with NCI-H460 lung, over 50 µM; in the assay with OVCAR-4 ovarian, over 50 µM; in the assay on IGROV1 ovarian, 9.35 µM; in the assay with KM12 colon, 7.26 µM; with MCF7 breast it was over 50 µM. For the same compound, in the assay with MDA-MB-231 breast, the TGI was determined as 5.78 µM.
Take `Cc1ccc(N(/C=C/C(=O)C(F)(F)F)CC(=O)c2ccc(Cl)c(Cl)c2)cc1`: the GI50 is 12.3 µM in the assay with HOP-62 NSCLC; 8.73 µM with NCI-H460 lung; 5.75 µM with IGROV1 ovarian; 1.67 µM with SNB-75 CNS; 3.53 µM with KM12 colon; 10.3 µM in the assay on UACC-257 melanoma. Moreover, the GI50 in the assay with MCF7 breast was 7.27 µM; with MDA-MB-231 breast it was 3.12 µM. Besides, the TGI was 24.8 µM with HOP-62 NSCLC; 21 µM in the assay with NCI-H460 lung; 18.6 µM in the assay with IGROV1 ovarian; 16.4 µM in the assay on SNB-75 CNS; 15 µM in the assay on KM12 colon; 22 µM in the assay with UACC-257 melanoma. Also, the TGI in the assay with MCF7 breast amounted to 20.2 µM; in the assay on MDA-MB-231 breast, 17.9 µM.
In the case of `COC(=O)c1ccc(NC(N)=NCC(C)(C)COc2ccc(C(F)(F)F)cc2)nc1`, the GI50 in the assay with HOP-62 NSCLC is 1.67 µM; in the assay on NCI-H460 lung, 1.67 µM; in the assay with SNB-75 CNS it was 1.57 µM; with HL-60(TB) leukemia it was 1.79 µM; in the assay with UACC-257 melanoma, 1.69 µM; in the assay on MCF7 breast it was 1.52 µM. In addition, in the assay on MDA-MB-231 breast, the GI50 was 1.7 µM. Also, the TGI with HOP-62 NSCLC stood at 3.2 µM; in the assay with NCI-H460 lung it was 3.36 µM; in the assay on SNB-75 CNS, 3.27 µM; in the assay on HL-60(TB) leukemia, 3.56 µM; in the assay with UACC-257 melanoma, 3.27 µM; in the assay on MCF7 breast, 3.28 µM. The TGI in the assay on MDA-MB-231 breast was found to be 3.39 µM.
`CCOc1ccc2c(c1)C(=O)c1c-2n(CCCN)c(=O)c2cc([N+](=O)[O-])ccc12`: the GI50 is under 0.0108 µM in the assay with HOP-62 NSCLC; 0.527 µM in the assay on OVCAR-4 ovarian; 0.314 µM in the assay with HL-60(TB) leukemia; 0.532 µM in the assay with KM12 colon; 1.19 µM in the assay with UACC-257 melanoma; under 0.01 µM with MCF7 breast. In the assay with MDA-MB-231 breast, the GI50 is 1.81 µM. For the same compound, the TGI in the assay on HOP-62 NSCLC was 1.22 µM; with OVCAR-4 ovarian, 2.18 µM; with HL-60(TB) leukemia, 2.4 µM; in the assay with KM12 colon it was 2.1 µM; with UACC-257 melanoma, 2.44 µM; with MCF7 breast, 0.271 µM. In the assay on MDA-MB-231 breast, this compound showed a TGI of 3.43 µM.
With `Clc1ccc(-c2nc(C(Cl)Cl)nc3cc(-c4ccccc4)nn23)cc1`, the GI50 with HOP-62 NSCLC was 1.22 µM; in the assay with NCI-H460 lung it was 0.787 µM; with OVCAR-4 ovarian, 0.917 µM; in the assay with IGROV1 ovarian, 2.4 µM; in the assay with SNB-75 CNS, 0.957 µM; with KM12 colon it was 0.884 µM. For the same compound, the values for the GI50 in the assay on MCF7 breast and in the assay on MDA-MB-231 breast were 1.47 µM and 1.8 µM, respectively. The TGI with HOP-62 NSCLC is 4.57 µM; in the assay with NCI-H460 lung, 2.15 µM; with OVCAR-4 ovarian, 3.63 µM; with IGROV1 ovarian, over 50 µM; with SNB-75 CNS it was over 50 µM; in the assay with KM12 colon, 2.89 µM. Further, the TGI with MCF7 breast and in the assay with MDA-MB-231 breast was over 50 µM in each case.
As to `COC1C(O)CC(OC2CC(OC3CC(O[C@@H]4C(=O)c5c(cc6cc(OC7CC(OC8CC(O)C(O)C(C)O8)C(O)C(C)O7)c(C)c(O)c6c5O)C[C@H]4[C@H](OC)C(=O)[C@@H](O)[C@@H](C)O)OC(C)C3O)OC(C)C2O)OC1C` (stereo partly drawn), the TGI with HOP-62 NSCLC is 3.87 µM; in the assay with NCI-H460 lung it was 4.34 µM; with OVCAR-4 ovarian it was over 100 µM; with IGROV1 ovarian, over 100 µM; with SNB-75 CNS it was 0.447 µM; in the assay on HL-60(TB) leukemia, 1.57 µM. The TGI in the assay with KM12 colon was over 12 µM; in the assay with UACC-257 melanoma, 0.931 µM; in the assay with MDA-MB-231 breast it was over 100 µM. Further, the GI50 in the assay with IGROV1 ovarian was 0.0363 µM; with HL-60(TB) leukemia, under 0.0215 µM.
`COC(=O)C1=CO[C@@H](OC2OC(CO)C(O)C(O)C2O)[C@@H]2[C@H](C)[C@@H](O)[C@@H](O)[C@]12O` (stereo partly drawn): the TGI in the assay with HOP-62 NSCLC, in the assay with IGROV1 ovarian, in the assay with SNB-75 CNS, in the assay with HL-60(TB) leukemia, in the assay on KM12 colon and in the assay on UACC-257 melanoma was over 100 µM throughout. Besides, the TGI in the assay with MCF7 breast and in the assay with MDA-MB-231 breast was over 100 µM throughout.
For the compound `CCOC(=O)C(O)Cc1cnc2ccccc2n1` (stereo not drawn), the TGI in the assay on HOP-62 NSCLC, in the assay on NCI-H460 lung, in the assay with OVCAR-4 ovarian, in the assay with IGROV1 ovarian, in the assay with SNB-75 CNS and in the assay on KM12 colon was over 100 µM each time. The TGI with UACC-257 melanoma, with MCF7 breast and in the assay on MDA-MB-231 breast was over 100 µM in each case.
